# Source: patent US20070048372A1, “Method for treating non-inflammatory osteoarthritic pain” (SRZ Properties, Inc., priority 2005, published 2007)
# Entries after “also recorded” stand apart in the source; their conditions may differ.
# Assays:
# [1] = test system: monosodium iodoacetate-induced mechanical hyperalgesia; experiment: Monosodium iodoacetate-induced mechanical hyperalgesia (Randall-Selitto paw pressure); type: in vivo, rat (Wistar)
# [2] = test system: biceps muscle grip strength after TNF-induced muscle pain; experiment: Biceps muscle grip strength after TNF-induced muscle pain; type: in vivo, rat (Sprague Dawley); conditions: for reversal of TNF-induced reduction of grip strength: 6 h after TNF i.m., 30 to 60 minutes after drug
# Protocol: (§1) Adult male Sprague Dawley rats with a body weight of 250 g to 300 g were used (supplier: Charles River, Sulzfeld, Germany). Animals were group-housed (3 animals per cage) and maintained in a room with controlled temperature (21-22° C.) and a reversed light-dark cycle (12 h/12 h) with food and water available ad libitum. All experiments were approved by the Bavarian State animal experimentation committee and carried out in accordance with its regulations.
# (§2) Recombinant rat tumor necrosis factor alpha (herein referred to as TNF) was obtained from R&D Systems, Minneapolis, Minn., U.S.A. TNF was diluted in 0.9% NaCl and used in a concentration of 1 μg in 50 μl. Injections were performed in short halothane narcosis with a 30 g needle bilaterally into the gastrocnemius or into the biceps brachii muscle. All rats were used to the behavioral tests before injections and baseline values were recorded over three test days.
# Grip strength of the forelimbs was tested with a digital grip force meter (DFIS series, Chatillon, Greensboro, NC, U.S.A.). The rat was positioned to grab the grid with the forelimbs and was gently pulled so that the grip strength could be recorded. Means of three trials were calculated. The effect of the TNF treatment was calculated for each animal separately and only animals with a significant TNF effect were included for further analysis.
# Rats were injected with TNF into the biceps brachii muscle at 8 am. Six hours later, grip strength of the forelimbs was tested with a digital grip force meter. Test drug was administered, and grip strength was again tested after 30 to 60 minutes.
# (§3) The rats, initially 10 per group, were treated with either 3, 10 or 30 mg/kg lacosamide, 2 mg/kg metamizol, 30 or 100 mg/kg pregabalin, 100 mg/kg gabapentin, or the NaCl vehicle, i.p. (intraperitoneally). Volume of i.p. injections was 0.5 ml. A pilot study was performed to confirm that i.m. (intramuscular) injection of 1 μg TNF into the gastrocnemius muscle was sufficient to induce pressure hyperalgesia.
# (§4) Data are shown in graphs displaying means and standard errors of the means (SEM). Pre- and post-treatment data were compared using ANOVA (analysis of variance) and a Tukey post hoc test. Means of treatment groups were compared using a one-way ANOVA and Dunnett's post hoc test. Maximal possible effects (MPE) were calculated for all types of treatment.
# [3] = test system: muscle pressure hyperalgesia induced by TNF; experiment: TNF-induced muscle pressure hyperalgesia (Randall-Selitto, withdrawal threshold to muscle pressure); type: in vivo, rat (Sprague Dawley); conditions: for reversal of muscular mechanical hyperalgesia (withdrawal threshold to muscle pressure): 18 h after TNF i.m., 30 to 60 minutes after drug
# Protocol: as §1, §2
# Mechanical withdrawal thresholds to muscle pressure were measured with an analgesimeter (Ugo Basile, Comerio, Italy). The rat was allowed to crawl into a sock which helps the rat to relax. The hind limbs were positioned such that an increasing pressure could be applied onto the gastrocnemius muscle (maximum 250 g). The pressure needed to elicit withdrawal was recorded. Means of 3 trials for each hind limb were calculated (interstimulus interval of >30 sec). Only animals with a significant TNF effect were included for further analysis.
# Rats were injected with TNF into the gastrocnemius muscle at 2 pm. Eighteen hours later, rats were tested for pressure hyperalgesia pre- and post-administration of the test drug. Rats were tested for pressure hyperalgesia 30 to 60 minutes after drug administration.
# as §3, §4
# [4] = test system: rat formalin paw test (late phase); experiment: Rat formalin paw test (late phase): number of flinches and licking time; type: in vivo, rat (Rj: Wistar (Han))
# Protocol: Rats were given an intraplantar injection of 5% formalin (50 μl) into the posterior left paw. This treatment induces a recognizable flinching and licking response of the affected paw in control animals. The number of flinches was counted for 15 minutes, beginning 20 minutes after injection of formalin. The time spent licking the affected paw was also recorded.
# Male Rj: Wistar (Han) rats, 10 per group, weighing 100-130 g at the beginning of the experiments were studied per group. The test was performed blind.
# Lacosamide (20 mg/kg), gabapentin (50 and 100 mg/kg), combinations of lacosamide (20 mg/kg) with gabapentin (50 and 100 mg/kg), and vehicle were administered i.p. 10 minutes before injection of formalin.
# Lacosamide (10 and 20 mg/kg), morphine (2 and 4 mg/kg), combinations of lacosamide (10 and 20 mg/kg) with morphine (2 and 4 mg/kg), and vehicle were administered i.p. 10 minutes before injection of formalin.
# Lacosamide (10 mg/kg), duloxetine (8 mg/kg), a combination of lacosamide (10 mg/kg) with duloxetine (8 mg/kg), and vehicle were administered i.p. 10 minutes before injection of formalin.
# Lacosamide (10 and 20 mg/kg), memantine (4 and 8 mg/kg), combinations of lacosamide (10 and 20 mg/kg) with memantine (4 and 8 mg/kg), and vehicle were administered i.p. 10 minutes before injection of formalin.
# Lacosamide (10 and 20 mg/kg), naproxen (8 and 16 mg/kg), combinations of lacosamide (10 and 20 mg/kg) with […] (8 and 16 mg/kg), and vehicle were administered i.p. 10 minutes before injection of formalin. Morphine (8 mg/kg) was included as a comparative treatment.
# [5] = test system: monosodium iodoacetate-induced tactile allodynia; experiment: Monosodium iodoacetate-induced tactile allodynia (von Frey filaments); type: in vivo, rat (Wistar)
structure (smiles),measurement,setting,value
"COC[C@@H](NC(C)=O)C(=O)NCc1ccccc1 [Lacosamide, (R)-2-acetamido-N-benzyl-3-methoxypropionamide]",paw pressure withdrawal threshold compared to iodoacetate/vehicle treated animals (mechanical hyperalgesia),"[1]; day 3, 3 mg/kg p.o.",increase in paw pressure withdrawal threshold
same,mechanical hyperalgesia (paw pressure withdrawal threshold),"[1]; day 7, 3 mg/kg p.o.",reduced mechanical hyperalgesia
same,mechanical hyperalgesia (paw pressure withdrawal threshold),"[1]; day 7, 10 mg/kg p.o.",reduced mechanical hyperalgesia
same,mechanical hyperalgesia (paw pressure withdrawal threshold),"[1]; day 7, 30 mg/kg p.o.",reduced mechanical hyperalgesia
same,mechanical hyperalgesia (paw pressure withdrawal threshold),"[1]; day 14, 10 mg/kg p.o.",did not show a statistically significant effect
same,mechanical hyperalgesia during the post-inflammatory period,"[1]; p.o., overall conclusion",inhibited mechanical hyperalgesia
same,"MPE (maximal possible effect) on biceps muscle grip strength, compared with vehicle",[2]; 10 mg/kg i.p.,significantly different from vehicle
same,reversal of TNF-induced reduction of grip strength,[2]; 10 mg/kg i.p.,significant reversal; also recorded: reversed the effect of TNF on the muscle
same,"MPE (maximal possible effect) on biceps muscle grip strength, compared with vehicle",[2]; 30 mg/kg i.p.,significantly different from vehicle
same,reversal of TNF-induced reduction of grip strength,[2]; 30 mg/kg i.p.,significant reversal
same,"MPE (maximal possible effect) on muscle pressure hyperalgesia, compared with vehicle",[3]; 10 mg/kg i.p.,significantly different from vehicle
same,"MPE (maximal possible effect) on muscle pressure hyperalgesia, compared with vehicle",[3]; 30 mg/kg i.p.,significantly different from vehicle
same,reversal of muscular mechanical hyperalgesia (withdrawal threshold to muscle pressure),[3]; 30 mg/kg i.p.,full reversal
same,reversal of muscular mechanical hyperalgesia (withdrawal threshold to muscle pressure),"[3]; 30 mg/kg i.p., listed as lacosamide",complete reversal
same,"muscle hyperalgesia induced by TNF injection in the paw pressure test, dose dependence","[3]; 3, 10 and 30 mg/kg i.p.",dose-dependently improved
same,Licking time % change (a) compared with vehicle control,"[4]; Example 3, 20 mg/kg i.p. alone",−34% (a)
same,Licking time (seconds) mean ± SEM,"[4]; Example 3, 20 mg/kg i.p. alone",146.9 ± 23.8 NS (a) seconds
same,No. of flinches % change (a) compared with vehicle control,"[4]; Example 3, 20 mg/kg i.p. alone",−33% (a)
same,No. of flinches mean ± SEM,"[4]; Example 3, 20 mg/kg i.p. alone",85.7 ± 14.3 NS (a)
same,decrease of the number of flinches as compared with vehicle controls,"[4]; Example 3, 20 mg/kg i.p. alone",33%
same,decrease of the time spent licking as compared with vehicle controls,"[4]; Example 3, 20 mg/kg i.p. alone",34%
same,Licking time % change (a) compared with vehicle control,"[4]; Example 4, 10 mg/kg i.p. alone",−28% (a)
same,Licking time (seconds) mean ± SEM,"[4]; Example 4, 10 mg/kg i.p. alone",210.1 ± 22.7 (a) seconds
same,No. of flinches % change (a) compared with vehicle control,"[4]; Example 4, 10 mg/kg i.p. alone",+22% (a)
same,No. of flinches mean ± SEM,"[4]; Example 4, 10 mg/kg i.p. alone",182.7 ± 25.9 NS (a)
same,decrease of the time spent licking as compared with vehicle controls,"[4]; Example 4, 10 mg/kg i.p. alone",28%
same,increase of the number of flinches as compared with vehicle controls,"[4]; Example 4, 10 mg/kg i.p. alone",22%
same,Licking time % change (a) compared with vehicle control,"[4]; Example 4, 20 mg/kg i.p. alone",−56% (a)
same,Licking time (seconds) mean ± SEM,"[4]; Example 4, 20 mg/kg i.p. alone",128.2 ± 28.0 (a) seconds
same,No. of flinches % change (a) compared with vehicle control,"[4]; Example 4, 20 mg/kg i.p. alone",−35% (a)
same,No. of flinches mean ± SEM,"[4]; Example 4, 20 mg/kg i.p. alone",97.2 ± 16.0 NS (a)
same,decrease of the number of flinches as compared with vehicle controls,"[4]; Example 4, 20 mg/kg i.p. alone",35%
same,decrease of the time spent licking as compared with vehicle controls,"[4]; Example 4, 20 mg/kg i.p. alone",56%
same,Licking time % change (a) compared with vehicle control,"[4]; Example 5, 10 mg/kg i.p. alone",−30% (a)
same,Licking time (seconds) mean ± SEM,"[4]; Example 5, 10 mg/kg i.p. alone",185.2 ± 31.7 NS (a) seconds
same,No. of flinches % change (a) compared with vehicle control,"[4]; Example 5, 10 mg/kg i.p. alone",+5% (a)
same,No. of flinches mean ± SEM,"[4]; Example 5, 10 mg/kg i.p. alone",158.2 ± 15.6 NS (a)
same,decrease of the time spent licking as compared with vehicle controls,"[4]; Example 5, 10 mg/kg i.p. alone",30%
same,effects on the number of flinches and the time spent licking,"[4]; Example 5, 10 mg/kg i.p. alone",had no significant effects
same,Licking time % change (a) compared with vehicle control,"[4]; Example 6, 10 mg/kg i.p. alone",−4% (a)
same,Licking time (seconds) mean ± SEM,"[4]; Example 6, 10 mg/kg i.p. alone",168.5 ± 23.9 NS (a) seconds
same,No. of flinches % change (a) compared with vehicle control,"[4]; Example 6, 10 mg/kg i.p. alone",−31% (a)
same,No. of flinches mean ± SEM,"[4]; Example 6, 10 mg/kg i.p. alone",113.9 ± 23.2 NS (a)
same,decrease of the number of flinches as compared with vehicle controls,"[4]; Example 6, 10 mg/kg i.p. alone",31%
same,effect on the time spent licking as compared with vehicle controls,"[4]; Example 6, 10 mg/kg i.p. alone",had no clear effects
same,Licking time % change (a) compared with vehicle control,"[4]; Example 6, 20 mg/kg i.p. alone",−52% (a)
same,Licking time (seconds) mean ± SEM,"[4]; Example 6, 20 mg/kg i.p. alone",85.1 ± 19.1 (a) seconds
same,No. of flinches % change (a) compared with vehicle control,"[4]; Example 6, 20 mg/kg i.p. alone",−48% (a)
same,No. of flinches mean ± SEM,"[4]; Example 6, 20 mg/kg i.p. alone",85.8 ± 14.4 (a)
same,decrease of the number of flinches as compared with vehicle controls,"[4]; Example 6, 20 mg/kg i.p. alone",48%
same,decrease of the time spent licking as compared with vehicle controls,"[4]; Example 6, 20 mg/kg i.p. alone",52%
same,Licking time % change (a) compared with vehicle control,"[4]; Example 7, 10 mg/kg i.p. alone",−9% (a)
same,Licking time (seconds) mean ± SEM,"[4]; Example 7, 10 mg/kg i.p. alone",174.7 ± 20.4 NS (a) seconds
same,No. of flinches % change (a) compared with vehicle control,"[4]; Example 7, 10 mg/kg i.p. alone",−13% (a)
same,No. of flinches mean ± SEM,"[4]; Example 7, 10 mg/kg i.p. alone",99.2 ± 16.6 NS (a)
same,effect on the time spent licking as compared with vehicle controls,"[4]; Example 7, 10 mg/kg i.p. alone",had no clear effects
same,Licking time % change (a) compared with vehicle control,"[4]; Example 7, 20 mg/kg i.p. alone",−59% (a)
same,Licking time (seconds) mean ± SEM,"[4]; Example 7, 20 mg/kg i.p. alone",78.9 ± 20.4 ***(a) seconds
same,No. of flinches % change (a) compared with vehicle control,"[4]; Example 7, 20 mg/kg i.p. alone",−12% (a)
same,No. of flinches mean ± SEM,"[4]; Example 7, 20 mg/kg i.p. alone",100.3 ± 22.3 NS (a)
same,decrease of the time spent licking as compared with vehicle controls,"[4]; Example 7, 20 mg/kg i.p. alone",59%
same,effect on the number of flinches as compared with vehicle controls,"[4]; Example 7, 10 and 20 mg/kg i.p. alone",did not clearly affect
same,tactile allodynia of iodoacetate-treated rats (von Frey),"[5]; day 3, 30 mg/kg p.o., 60 minutes before test",improved tactile allodynia
same,tactile allodynia of iodoacetate-treated rats (von Frey),"[5]; day 7, 30 mg/kg p.o., 60 minutes before test",improved tactile allodynia
same,tactile allodynia of iodoacetate-treated rats (von Frey),"[5]; day 14, 30 mg/kg p.o., 60 minutes before test",not on day 14
same,tactile allodynia of iodoacetate-treated rats (von Frey),[5]; lower doses (3 and 10 mg/kg p.o.),showed a trend for such improvement
